Source: patent US11324768B2, “Applications of triacetyl-3-hydroxyl phenyl adenosine in treating vascular inflammations or improving vascular endothelium functions” (priority 2016, dated 2022)

Experiments:
Type in all cases: in vivo
TNF-α = assay: Serum inflammatory factor TNF-α in ApoE−/− mice (ELISA); design: unit not given here
Experimental: After 1 week of adaptive feeding, the animals were randomly divided into 7 groups according to body weight: normal control group, model control group A769662 (30 mg/kg) administration group, metformin (260 mg/kg) administration group, IMM-H007 low, medium, and high administration groups (50, 100, 200 mg/kg), 8 in each group, and were given a high-fat diet (78.6% basal diet, 10% lard, 1.0% cholesterol, 10% egg yolk powder, and 0.4% bile salt), […] body weight, and were continuously administered and fed for 8 weeks to establish an atherosclerosis model.
(2) Effect of IMM-H007 on Serum Inflammatory Factors TNF-α and VCAM-1 in ApoE−/− Mice
Operated according to kit instructions

[1] = tested on: third-order mesenteric artery; assay: Mesenteric microvascular endothelial function in ApoE−/− mice (pressure myography, Ach / SNP relaxation)
Experimental: After 1 week of adaptive feeding, the animals were randomly divided into 7 groups according to body weight: normal control group, model control group A769662 (30 mg/kg) administration group, metformin (260 mg/kg) administration group, IMM-H007 low, medium, and high administration groups (50, 100, 200 mg/kg), 8 in each group, and were given a high-fat diet (78.6% basal diet, 10% lard, 1.0% cholesterol, 10% egg yolk powder, and 0.4% bile salt), and simultaneously administered intragastrically at a dose of 0.1 ml/10 g body weight, and were continuously administered and fed for 8 weeks to establish an atherosclerosis model.
(§1) PSS and KPSS solutions were configured according to the instructions and used at the same time of the day. The PSS solution was taken out before the start of the experiment and pre-oxygenated for about 20 min. The ApoE−/− mice, which were fed with high-fat and simultaneously administered for 10 weeks, were anesthetized with pentobarbital sodium. The mice were supine and fixed. The abdominal cavity was opened along the median line. The mesenteric vascular bed was isolated and placed in the pre-oxygenated 20-minute PSS buffer. Under a stereomicroscope, a third-order mesenteric artery with a length of about 3 mm was carefully isolated. Firstly, the blood vessel was fixed to a P1 glass cannula and the coil was tightened. Note: the proximal end should be connected to the P1 end, and the P2 end vessel should be fixed and the coil should be tightened. The Chamber was placed on a objective table of the microscope and the data connection between Chamber and Interface was checked. The bath cover was covered and the oxygen was introduced, to exhaust air in the pipeline. The blood vessel image was found under the microscope and then the microscope was turned to camera mode. (The knob on the side of the eyepiece was rotated to graph.) MyoVIEW software was opened. The Camera window Capture was clicked to display the blood vessel image. The equilibration of blood vessels slowly rose from 10 mmHg to 60 mmHg, and each step was 300 s. After the equilibration procedure was completed, the solution in the bath was drained. Blood vessels were stimulated (10 ml) for 2 min using a 37° C. pre-heated KPSS solution, and changes in vasoconstriction were observed, and the blood vessels were then eluted using the PSS solution to baseline. The blood vessels were equilibrated at 60 mmHg 37° C. for 45 minutes, during which time the fluid was replaced every 20 minutes. The experiment was started: observing the vasodilatory response induced by 10^−10 to 10^−5 M Ach after pre-contraction with 2 μM phenylephrine, to evaluate the effect of the drugs on the vascular endothelial function. At the end of the experiment, the fresh 37° C. pre-heated PSS buffer was replaced for equilibration for 30 min, and the 10^−10M to 10^−3 M sodium nitroprusside were given to induce vasodilatory response after pre-contraction with 2 μM phenylephrine, to evaluate the effect of the drugs on vascular smooth muscle function. LD1 was the diameter of blood vessel after relaxation by administration of different concentrations of ACh or sodium nitroprusside, LD2 was the diameter of blood vessels after pre-contraction with phenylephrine, and LD3 represented the maximum diastolic diameter of blood vessel without any stimulant.
(§2) The relaxation response to Ach and sodium nitroprusside after pre-contraction with phenylephrine was expressed as the percentage increase in the vascular diameter: % Relaxation=(LD1−LD2)/(LD3−LD2)×100.

mesenteric arterioles = assay: Microvascular endothelial function in Ob/Ob obese mice (mesenteric arterioles, Ach / SNP relaxation)
Experimental: as §1, §2
[…] The changes of food intake and body weight were recorded, and routine biochemical indicators such as blood lipids and blood glucose, etc. were measured. After 9 weeks, 3 animals were taken from each group and the mesenteric arterioles were taken for measurement of vascular endothelial function in the same manner as in Example 2.

CC(=O)OCC1OC(n2cnc3c(Nc4cccc(O)c4)ncnc32)C(OC(C)=O)C1OC(C)=O (stereo not shown) [IMM-H007, 2′,3,′ 5′-triacetyl-N^6(3-hydroxyphenyl)adenosine]
serum TNF-α (TNF-α; 100 mg/kg): 256.3 ± 46.4 | serum TNF-α (TNF-α; 200 mg/kg): 250.2 ± 27.8 | sodium nitroprusside endothelium-independent relaxation of microvascular ([1]; 50 mg/kg, 1 × 10^−3 M SNP): 96.5 ± 6.3% | sodium nitroprusside endothelium-independent relaxation of microvascular ([1]; 50 mg/kg, 1 × 10^−4 M SNP): 80.3 ± 12.1% | acetylcholine-induced endothelium-dependent relaxation of microvascular ([1]; 50 mg/kg, 1 × 10^−5 M Ach): 95.0 ± 4.4 % | sodium nitroprusside endothelium-independent relaxation of microvascular ([1]; 50 mg/kg, 1 × 10^−5 M SNP): 74.5 ± 12.8% | acetylcholine-induced endothelium-dependent relaxation of microvascular ([1]; 50 mg/kg, 1 × 10^−6 M Ach): 87.3 ± 5.0 % | sodium nitroprusside endothelium-independent relaxation of microvascular ([1]; 50 mg/kg, 1 × 10^−6 M SNP): 66.4 ± 11.6% | acetylcholine-induced endothelium-dependent relaxation of microvascular ([1]; 50 mg/kg, 1 × 10^−7 M Ach): 48.7 ± 12.8% | sodium nitroprusside endothelium-independent relaxation of microvascular ([1]; 50 mg/kg, 1 × 10^−7 M SNP): 60.9 ± 8.5% | acetylcholine-induced endothelium-dependent relaxation of microvascular ([1]; 50 mg/kg, 1 × 10^−8 M Ach): 29.3 ± 21.8% | sodium nitroprusside endothelium-independent relaxation of microvascular ([1]; 50 mg/kg, 1 × 10^−8 M SNP): 52.9 ± 14.2% | acetylcholine-induced endothelium-dependent relaxation of microvascular ([1]; 50 mg/kg, 1 × 10^−9 M Ach): 12.9 ± 12.6% | sodium nitroprusside endothelium-independent relaxation of microvascular ([1]; 50 mg/kg, 1 × 10^−9 M SNP): 43.9 ± 18.2% | acetylcholine-induced endothelium-dependent relaxation of microvascular ([1]; 50 mg/kg, 1 × 10^−10 M Ach): 5.0 ± 5.1% | sodium nitroprusside endothelium-independent relaxation of microvascular ([1]; 50 mg/kg, 1 × 10^−10 M SNP): 19.9 ± 10.1% | microvascular endothelial dysfunction caused by high fat ([1]; 50 mg/kg, compared with the model control group): significantly improve | sodium nitroprusside endothelium-independent relaxation of microvascular ([1]; 100 mg/kg, 1 × 10^−3 M SNP): 96.5 ± 3.6% | sodium nitroprusside endothelium-independent relaxation of microvascular ([1]; 100 mg/kg, 1 × 10^−4 M SNP): 87.5 ± 10.9% | acetylcholine-induced endothelium-dependent relaxation of microvascular ([1]; 100 mg/kg, 1 × 10^−5 M Ach): 93.9 ± 12.9 % | sodium nitroprusside endothelium-independent relaxation of microvascular ([1]; 100 mg/kg, 1 × 10^−5 M SNP): 78.4 ± 13.0% | acetylcholine-induced endothelium-dependent relaxation of microvascular ([1]; 100 mg/kg, 1 × 10^−6 M Ach): 82.9 ± 8.5 % | sodium nitroprusside endothelium-independent relaxation of microvascular ([1]; 100 mg/kg, 1 × 10^−6 M SNP): 64.6 ± 12.2% | acetylcholine-induced endothelium-dependent relaxation of microvascular ([1]; 100 mg/kg, 1 × 10^−7 M Ach): 43.1 ± 21.8% | sodium nitroprusside endothelium-independent relaxation of microvascular ([1]; 100 mg/kg, 1 × 10^−7 M SNP): 51.5 ± 17.9% | acetylcholine-induced endothelium-dependent relaxation of microvascular ([1]; 100 mg/kg, 1 × 10^−8 M Ach): 18.6 ± 17.2% | sodium nitroprusside endothelium-independent relaxation of microvascular ([1]; 100 mg/kg, 1 × 10^−8 M SNP): 44.9 ± 21.9% | acetylcholine-induced endothelium-dependent relaxation of microvascular ([1]; 100 mg/kg, 1 × 10^−9 M Ach): 10.2 ± 12.0% | sodium nitroprusside endothelium-independent relaxation of microvascular ([1]; 100 mg/kg, 1 × 10^−9 M SNP): 33.9 ± 23.5% | acetylcholine-induced endothelium-dependent relaxation of microvascular ([1]; 100 mg/kg, 1 × 10^−10 M Ach): 2.37 ± 3.4% | sodium nitroprusside endothelium-independent relaxation of microvascular ([1]; 100 mg/kg, 1 × 10^−10 M SNP): 11.9 ± 13.5% | acetylcholine-induced endothelium-dependent relaxation response ([1]; 100 mg/kg, compared with the model control group): significantly improve | sodium nitroprusside endothelium-independent relaxation of microvascular ([1]; 200 mg/kg, 1 × 10^−3 M SNP): 96.9 ± 2.9% | sodium nitroprusside endothelium-independent relaxation of microvascular ([1]; 200 mg/kg, 1 × 10^−4 M SNP): 91.3 ± 6.2% | acetylcholine-induced endothelium-dependent relaxation of microvascular ([1]; 200 mg/kg, 1 × 10^−5 M Ach): 96.9 ± 14.2 % | sodium nitroprusside endothelium-independent relaxation of microvascular ([1]; 200 mg/kg, 1 × 10^−5 M SNP): 75.3 ± 12.6% | acetylcholine-induced endothelium-dependent relaxation of microvascular ([1]; 200 mg/kg, 1 × 10^−6 M Ach): 73.3 ± 17.5 % | sodium nitroprusside endothelium-independent relaxation of microvascular ([1]; 200 mg/kg, 1 × 10^−6 M SNP): 58.0 ± 21.3% | acetylcholine-induced endothelium-dependent relaxation of microvascular ([1]; 200 mg/kg, 1 × 10^−7 M Ach): 42.2 ± 20.8% | sodium nitroprusside endothelium-independent relaxation of microvascular ([1]; 200 mg/kg, 1 × 10^−7 M SNP): 44.9 ± 27.8% | acetylcholine-induced endothelium-dependent relaxation of microvascular ([1]; 200 mg/kg, 1 × 10^−8 M Ach): 32.0 ± 20.1% | sodium nitroprusside endothelium-independent relaxation of microvascular ([1]; 200 mg/kg, 1 × 10^−8 M SNP): 39.4 ± 24.2% | acetylcholine-induced endothelium-dependent relaxation of microvascular ([1]; 200 mg/kg, 1 × 10^−9 M Ach): 18.8 ± 17.5% | sodium nitroprusside endothelium-independent relaxation of microvascular ([1]; 200 mg/kg, 1 × 10^−9 M SNP): 28.9 ± 29.5% | acetylcholine-induced endothelium-dependent relaxation of microvascular ([1]; 200 mg/kg, 1 × 10^−10 M Ach): 9.5 ± 12.0% | sodium nitroprusside endothelium-independent relaxation of microvascular ([1]; 200 mg/kg, 1 × 10^−10 M SNP): 19.4 ± 3.05% | microvascular endothelial function (mesenteric arterioles; 400 mg/kg, 9 weeks): improve | acetylcholine endothelium-dependent relaxation of microvascular (mesenteric arterioles; 400 mg/kg, 1 × 10^−5 M Ach): 93.6 ± 1.1 % | acetylcholine endothelium-dependent relaxation of microvascular (mesenteric arterioles; 400 mg/kg, 1 × 10^−6 M Ach): 82.1 ± 9.3 % | acetylcholine endothelium-dependent relaxation of microvascular (mesenteric arterioles; 400 mg/kg, 1 × 10^−7 M Ach): 71.7 ± 13.5 % | acetylcholine endothelium-dependent relaxation of microvascular (mesenteric arterioles; 400 mg/kg, 1 × 10^−8 M Ach): 57.6 ± 15.8 % | acetylcholine endothelium-dependent relaxation of microvascular (mesenteric arterioles; 400 mg/kg, 1 × 10^−9 M Ach): 32.3 ± 18.9% | acetylcholine endothelium-dependent relaxation of microvascular (mesenteric arterioles; 400 mg/kg, 1 × 10^−10 M Ach): 0.96 ± 0.85% | sodium nitroprusside endothelium-independent relaxation of microvascular (mesenteric arterioles; 1 × 10^−3 M SNP): 95.0 ± 3.8% | sodium nitroprusside endothelium-independent relaxation of microvascular (mesenteric arterioles; 1 × 10^−4 M SNP): 94.3 ± 2.3% | sodium nitroprusside endothelium-independent relaxation of microvascular (mesenteric arterioles; 1 × 10^−5 M SNP): 91.4 ± 2.5% | sodium nitroprusside endothelium-independent relaxation of microvascular (mesenteric arterioles; 1 × 10^−6 M SNP): 80.8 ± 6.9% | sodium nitroprusside endothelium-independent relaxation of microvascular (mesenteric arterioles; 1 × 10^−7 M SNP): 68.3 ± 5.1% | sodium nitroprusside endothelium-independent relaxation of microvascular (mesenteric arterioles; 1 × 10^−8 M SNP): 58.9 ± 3.2% | sodium nitroprusside endothelium-independent relaxation of microvascular (mesenteric arterioles; 1 × 10^−9 M SNP): 43.5 ± 4.1% | sodium nitroprusside endothelium-independent relaxation of microvascular (mesenteric arterioles; 1 × 10^−10 M SNP): 16.9 ± 6.3%
